Reference: article PMC11311031, “Novel Thienopyrimidine-Hydrazinyl Compounds Induce DRP1-Mediated Non-Apoptotic Cell Death in Triple-Negative Breast Cancer Cells” (Cancers, 2024)
“Also recorded” adds a separate entry of the source.

Experiments:
Assay type in all cases: cell-based
[1] = system: mitochondrial membrane potential in BT-20 cells; experiment: Mitochondrial membrane potential (TMRE dye); conditions: 200 μM, 4 h, p < 0.0001
Protocol: The mitochondrial membrane potential (MMP) was determined using fluorescence microscopy by staining cellular mitochondria with tetramethylrhodamine ethyl ester (TMRE) dye (Invitrogen, Waltham, MA, USA). […] As a positive control, cells were incubated with carbonyl cyanide 3-chlorophenylhydrazone (CCCP) (TargetMol, Boston, MA, USA), a compound that uncouples mitochondrial oxidative phosphorylation, at a concentration of 200 μM, for 4 h. After incubation with the test compounds, the media was carefully removed from each well and incubated for 20 min with 0.4 µM of TMRE in PBS. Finally, the dye was carefully removed and replaced with fresh PBS. The cells were then imaged to detect MMP using a Cytation 7 Cell Imaging Multi-Mode Reader.

[2] = system: BT-20 cells; experiment: MTT cell cytotoxicity assay; conditions: Homo sapiens, 72 h incubation, read-out: IC50 ± SD, BT-20, MTT Assay
Protocol: (§1) The cytotoxic efficacy of thienopyrimidine derivatives was determined as previously described, using 3 different assays: (1) (3-(4,5-dimethylthiazol-2-yl)-2,5-diphenyltetrazolium bromide) (MTT) (Avantor, Radnor, PA, USA), (2) CellTiter-Blue (CTB) (Promega, Madison, WI, USA), and (3) sulforhodamine B (SRB) (TargetMol, Boston, MA, USA) assay. For these assays, cells were harvested using 0.05% trypsin-ethylenediamine-tetraacetic acid (EDTA) (Corning, Corning, NY, USA), seeded at a density of 3000–5000 cells/well in a 96-well plate, and incubated at 37 °C overnight. The next day, the cells were incubated with different concentrations of the test compounds (0.1, 0.3, 1, 3, 10, 30, or 100 μM) and incubated for 72 h. […] In contrast, vehicle control (cells incubated in drug-free medium) contained less than 0.1% of DMSO.
For the MTT assay, 4 mg/mL MTT was added to the cells and incubated for 3 h to allow for the conversion of MTT (yellow) to formazan crystals (dark blue). Following incubation, the media was aspirated and DMSO was added to solubilize the formazan crystals. The Cytation 7 Cell Imaging Multi-Mode Reader (Agilent Technologies, Winooski, VT, USA) was used to measure the absorbance at 570 nm.

[3] = system: cytochrome c in BT-20 cells; experiment: Immunofluorescence of cytochrome c; conditions: 1 μM, p < 0.0001
Protocol: Immunofluorescence assays were conducted as previously described. In total, 100,000 BT-20 cells per well were plated on coverslips in a 6-well plate. […] After the incubation period, the media was carefully removed, and the cells were fixed using 1 mL of 4% paraformaldehyde for 15 min at room temperature. The cells were rinsed three times with PBS for 5 min. Five hundred microliters of 0.2% Trition-X100 was added to each well for 10 min to permeabilize the cells. The cells were washed three times with PBS for 5 min each. The cells were then blocked with 3% bovine serum albumin (BSA) in PBS, containing 0.1% Tween, for 2 h at room temperature before incubation with either cytochrome c (1:250), DRP1 (1:50), or phosphorylated-DRP1(1:450) monoclonal antibodies (Cell Signaling Technology, Danvers, MA, USA) overnight at 4 °C. The cells were incubated with either anti-mouse Alexa Fluor™ 594 (Invitrogen, Waltham, MA, USA) or anti-rabbit Alexa Fluor™ 488 at room temperature for 1 h. Nuclei were finally stained with Hoechst 33342 (ImmunoChemistry Technologies, Davis, CA, USA) for 10 min. Images were captured using a Cytation 7 Cell Imaging Multi-Mode Reader.

[4] = system: BT-20 cells; experiment: CellTiter-Blue (CTB) assay; conditions: Homo sapiens, 72 h incubation, read-out: IC50 ± SD, BT-20, CTB Assay
Protocol: as §1
For the CTB assay, the CTB reagent was added to cells and incubated for 3 h to allow the reduction of resazurin (emits a blue color and low fluorescence) by metabolically active cells to resorufin (emits a pink color and high fluorescence). Finally, the plates were shaken for 10 s in a plate shaker, and fluorescence was measured at 560/590 nm.

[5] = system: caspase 3/7 activity in BT-20 cells; experiment: Caspase-Glo 3/7 activity assay
Protocol: Caspase-Glo® 3/7 Assay (Promega, Madison, WI, USA) was used to study the caspase 3/7 activity in BT-20 cells incubated with lead compounds. Briefly, 3000 BT-20 TNBC cells/well were plated in an opaque 96-well plate. […] Next, a mixture of Caspase-Glo® 3/7 buffer and lyophilized Caspase-Glo® 3/7 substrate was equilibrated to room temperature. The plates were removed from the incubator and allowed to adjust to room temperature for 30 min. Next, 100 μL of the Caspase-Glo® 3/7 reagent was added to each well, and the samples were placed in a shaker for 30 s. After 3 h of incubation at room temperature, luminescence, which indicates cleavage of […] caspases (caspase-3 and -7), was measured using a microplate reader (Agilent Technologies, Winooski, VT, USA).

[6] = system: BT-20 cells; experiment: Nuclear staining with Hoechst 33342; conditions: 1 μM, 24 h
Protocol: Briefly, 100,000 cells/well of BT-20 cells were plated in a 6-well plate containing clear sterile coverslips. […] Next, the cells were stained with 0.5% v/v of the Hoechst 33342 dye for 15 min. 4% paraformaldehyde at a concentration of 4%, was used to fix cells at room temperature for another 15 min. After 1 wash with PBS, the cells were mounted on a clear slide, using Fluoromount-G (SouthernBiotech, Birmingham, AL, USA). The slides were visualized to detect nuclear fragmentation using the Cytation 7 Cell Imaging Multi-Mode Reader (Agilent Technologies, Winooski, VT, USA), which provided data related to nuclear fragmentation.

[7] = system: ROS in BT-20 cells; experiment: Intracellular ROS (H2DCFDA dye); conditions: 2 μM, 2 h, p < 0.0001
Excerpt: It has been reported that ROS can cause the death of cancer cells by inducing apoptosis. Indeed, high levels of ROS activate the p53 enzyme system, which promotes late-stage apoptosis by upregulating the levels of pro-apoptotic proteins such as BAK and BAX and downregulating the levels of anti-apoptotic proteins such as BCL-2, BCL-xL, and MCL-1 [120]. In addition, ROS induce permeabilization of the outer mitochondrial membrane by opening the mitochondrial permeability transition pore (mPTP). This alters the electrochemical proton gradient across the mitochondria, causing the release of pro-apoptotic molecules into the cytoplasm, which are involved in apoptotic cell death. […] Cellular esterases hydrolyze the acetyl groups after the dye is taken up by cells, resulting in the formation of H2DCF [124]. Subsequently, intracellular ROS oxidize H2DCF to produce 2′,7′-dichlorofluorescein, which emits green fluorescence (excitation and emission wavelengths of 485 nm and 522 nm, respectively).

[8] = system: caspases (-3, -7, -8, -9), BAX, BAK, BCL-2, PARP in BT-20 cells; experiment: Western blot of apoptotic and anti-apoptotic proteins; conditions: 1 μM
Protocol: Subsequently, the cells were washed with ice-cold PBS. The subcellular fraction was obtained by scraping the cells using a cell scrapper in ice-cold cytosolic lysis buffer. Next, the lysates were left on ice for 15 min. Nonyl phenoxypolyethoxylethanol (NP-40) (10% v/v) was introduced in the lysates and subjected to 2–3 min incubation. The lysates were then centrifuged for 10 min at 4 °C and 14,000 rpm. The resultant protein concentration in the lysates was determined using bicinchoninic acid (BCA) assay. Thirty micrograms of the proteins were loaded and separated on a 10% acrylamide SDS-PAGE gel, transferred to a PVDF membrane, and incubated overnight at 4 °C, with primary antibodies against cleaved caspase-3, caspase-3, cleaved caspase-7, caspase-7, cleaved caspase-9, caspase-9, cleaved caspase-8, caspase-8, BAX, BAK, BCL-2, cleaved PARP, PARP, p-DRP1, DRP1, p-MFF, MFF, FIS1, MFN1, MFN2, OPA1, and β-actin. […] ImageJ software (National Institutes of Health, Bethesda, MD, USA) was used to quantify the protein. Cellular proteins were quantified as a ratio to β-actin and were normalized to the vehicle control. The densitometry readings/intensity ratio of each band, andthe original whole western blot (uncropped blots) showing all the bands with the molecular weight markers, is shown in the Supplemental Materials.

[9] = system: BT-20 cells; experiment: Sulforhodamine B (SRB) assay; conditions: Homo sapiens, 72 h incubation, read-out: IC50 ± SD, BT-20, SRB Assay
Protocol: as §1
For the SRB assay, the cells were fixed with 50% (w/v) tri-chloroacetic acid (TCA) (Avantor, Radnor, PA, USA) and incubated at 4 °C for 1 h. The cells were washed 4 times with deionized, distilled water, and air-dried at room temperature. The next day, the cells were stained with 0.04% (w/v) SRB solution for 1 h at room temperature and washed 4 times with 1% (v/v) acetic acid (Avantor, Radnor, PA, USA). After airdrying the plates overnight, 10 mM Tris base solution (pH 10.5) was added to each well and pipetted thoroughly to dissolve the dye, and absorbance was read at 510 nm.

[10] = system: mouse embryonic fibroblast (MEF) cells; experiment: β-Galactosidase staining (senescence), positive control; conditions: 250 nM, 24 h
Protocol: BT-20 cells were plated at 4000/well into a 96-well plate and incubated overnight. […] Four thousand cells/well of senescent MEFs were also seeded. The plate was incubated for 24 h. Once 80–100% confluency was obtained, mouse embryonic fibroblast (MEF) cells were incubated with 250 nM of doxorubicin for 24 h to induce senescence (positive control), followed by a change in media. The cells were incubated for another week and the media was changed every 3–4 days.
The next day, the cells were washed with PBS and fixed with 3% formaldehyde for 5 min. The cells were washed with PBS twice, followed by an addition of β-galactosidase (Research Products International, Racine, WI, USA) stain. The cells were placed in a 37 °C incubator with no CO2 overnight and imaged to detect β-galactosidase staining the next day using the Color Brightfield channel on the Cytation 7 Imaging Multi-Mode Reader.

N#CC(C#N)=NNc1cccc(Cl)c1 [CCCP, carbonyl cyanide 3-chlorophenylhydrazone]
TMRE fluorescence compared to vehicle control (positive control) [1]: significantly lower

CC(=O)O[C@H]1C(=O)[C@@]2(C)[C@H]([C@H](OC(=O)c3ccccc3)[C@]3(O)C[C@H](OC(=O)[C@H](O)[C@@H](NC(=O)c4ccccc4)c4ccccc4)C(C)=C1C3(C)C)[C@]1(OC(C)=O)CO[C@@H]1C[C@@H]2O [PTX, Paclitaxel]
IC50 [2]: 50 nM | cytochrome c release compared to vehicle control [3]: significantly enhanced | IC50 [4]: 70 ± 30 nM | level of bioluminescence (activation of caspase-3 and caspase-7) ([5]; 0.1 μM): significantly increased | caspase-3 and 7 activity (Caspase-Glo 3/7) ([5]; 1 µM, n = 2): induced; also recorded: increased | level of nuclear fragmentation (positive control) [6]: significantly increased | ROS levels compared to vehicle control [7]: significantly elevated | Bcl-2 levels compared to vehicle control [8]: significant decrease | levels of cleaved caspase-3, -7, -8, -9 and total caspase-8 compared to vehicle control [8]: significantly upregulated | IC50 [9]: 50 nM

COc1cccc2c1C(=O)c1c(O)c3c(c(O)c1C2=O)C[C@@](O)(C(=O)CO)C[C@@H]3O[C@H]1C[C@H](N)[C@H](O)[C@H](C)O1 [doxorubicin]
SA-β-gal staining of MEF cells (positive control) [10]: stained blue
